Assay results published in publication PMC9658216, “Topical Administration of a Novel Acetylated Tetrapeptide Suppresses Vascular Permeability and Immune Responses and Alleviates Atopic Dermatitis in a Murine Model” (International Journal of Molecular Sciences, 2022).

Tests used:
filaggrin (FLG) = experiment: Skin filaggrin (FLG) ELISA; format: in vivo, mouse; conditions: n = 10; for FLG level in dorsal skin: mean ± SD
Procedure: To induce experimental AD-like skin lesions in mouse, we used cutaneous Biostir-AD for challenging NC/Nga mice, according to the manufacturer’s instructions. After 1 week of acclimation, AD was induced. Briefly, the dorsal part of each mouse was shaved with an electric shaver, and then the remaining hair was removed using a depilatory cream. Twice weekly for three weeks, growing hair was shaved with the electric shaver, followed by application of 150 μL of 4% sodium dodecyl sulfate to the treated area (barrier disruption). Biostir-AD (200 mg/mouse) was applied 3 h after barrier disruption. Fifty mice were divided into five groups of five mice per cage (n = 10 per group): group 1, control (Biostir-AD + vehicle (distilled water only)); group 2, 0.1% tacrolimus (Biostir-AD + Protopic (positive control)); group 3, 0.004% Ac-RLYE (Biostir-AD + 0.004% Ac-RLYE in distilled water); group 4, 0.02% Ac-RLYE (Biostir-AD + 0.02% Ac-RLYE in distilled water); and group 5, 0.1% Ac-RLYE (Biostir-AD + 0.1% Ac-RLYE in distilled water). Ac-RLYE or 0.1% tacrolimus (100 μL/mouse) was applied daily for 4 weeks. The concentration of Ac-RLYE used in the present study was determined based on the results of previous preliminary experiments (unpublished data). The mice were sacrificed after 4 weeks of Ac-RLYE treatment (Figure 2A, on Day 48). The dorsal skin was collected from mice after 4 weeks of Ac-RLYE or tacrolimus treatment and stored at −80 °C until use. The dorsal skin tissues were homogenized in RIPA lysis buffer containing a protease inhibitor and a phosphatase inhibitor and centrifuged at 13,000 rpm for 10 min at 4 °C. The supernatant was collected for a protein assay using a Pierce™ BCA Protein Assay Kit (Thermo Fisher Scientific, Inc., Waltham, MA, USA). The level of FLG in mouse skin tissue was quantified using an ELISA kit (MyBioSource, Inc., San Diego, CA, USA) in accordance with the manufacturer’s instructions.

NC/Nga mice [1] = experiment: Dermatitis severity score in HDM (Biostir-AD)-induced AD-like skin lesions; format: in vivo; conditions: topical 100 μL/mouse daily for 4 weeks, Day 48, mean ± SD, n = 10
Procedure: (§1) To induce experimental AD-like skin lesions in mouse, we used cutaneous Biostir-AD for challenging NC/Nga mice, according to the manufacturer’s instructions. After 1 week of acclimation, AD was induced. Briefly, the dorsal part of each mouse was shaved with an electric shaver, and then the remaining hair was removed using a depilatory cream. Twice weekly for three weeks, growing hair was shaved with the electric shaver, followed by application of 150 μL of 4% sodium dodecyl sulfate to the treated area (barrier disruption). Biostir-AD (200 mg/mouse) was applied 3 h after barrier disruption. Fifty mice were divided into five groups of five mice per cage (n = 10 per group): group 1, control (Biostir-AD + vehicle (distilled water only)); group 2, 0.1% tacrolimus (Biostir-AD + Protopic (positive control)); group 3, 0.004% Ac-RLYE (Biostir-AD + 0.004% Ac-RLYE in distilled water); group 4, 0.02% Ac-RLYE (Biostir-AD + 0.02% Ac-RLYE in distilled water); and group 5, 0.1% Ac-RLYE (Biostir-AD + 0.1% Ac-RLYE in distilled water). Ac-RLYE or 0.1% tacrolimus (100 μL/mouse) was applied daily for 4 weeks. The concentration of Ac-RLYE used in the present study was determined based on the results of previous preliminary experiments (unpublished data). The mice were sacrificed after 4 weeks of Ac-RLYE treatment (Figure 2A, on Day 48). The severity of the dermatitis was measured macroscopically and scored once a week by using a previously established method based on the clinical signs and symptoms of AD, namely, erythema (hemorrhage), edema, excoriation (erosion), and scaling (dryness). The total dermatitis severity score was defined as the sum of the component scores (0, no symptoms; 1, mild; 2, moderate; 3, severe) for each mouse, ranging from 0 to 12.

NC/Nga mice [2] = experiment: Mast cell infiltration (toluidine blue staining); format: in vivo, mouse; conditions: Day 48, versus vehicle-treated group, n = 10
Procedure: (§2) To induce experimental AD-like skin lesions in mouse, we used cutaneous Biostir-AD for challenging NC/Nga mice, according to the manufacturer’s instructions. After 1 week of acclimation, AD was induced. Briefly, the dorsal part of each mouse was shaved with an electric shaver, and then the remaining hair was removed using a depilatory cream. Twice weekly for three weeks, growing hair was shaved with the electric shaver, followed by application of 150 μL of 4% sodium dodecyl sulfate to the treated area (barrier disruption). Biostir-AD (200 mg/mouse) was applied 3 h after barrier disruption. […] The concentration of Ac-RLYE used in the present study was determined based on the results of previous preliminary experiments (unpublished data). […]
(§3) The dorsal skin tissues were isolated, fixed in 10% formalin immediately after excision from the mice, and embedded in paraffin. […] Skin samples were observed and measured with an Olympus BX53 light microscope (Olympus Corporation, Tokyo, Japan). From the histopathological findings, the severity of skin manifestations was assessed on the epidermis (hypertrophy, hyperkeratosis, and infiltration by inflammatory cells) and on the dermis (infiltration by inflammatory cells) and was expressed as the sum of the individual score grades from 0 to 3 (0, no symptoms; 1, mild; 2, moderate; 3, severe), as described previously. […]

IgE = experiment: Plasma IgE ELISA; format: in vivo, mouse; conditions: Day 48, topical application, versus vehicle-treated group, n = 10
Procedure: as §2
The blood samples were drawn from mice, and the plasma was separated by centrifugation at 10,000× g for 10 min at 4 °C and stored at −80 °C until tested. The plasma level of IgE was measured by ELISA according to the manufacturer’s instructions (Mouse IgE ELISA Kit, Abcam, Cambridge, UK).

NC/Nga mice [3] = experiment: Ear thickness in HDM-induced AD model; format: in vivo, mouse; conditions: n = 10
Procedure: as §1, with “The mice were sacrificed after 4 weeks of Ac-RLYE treatment (Figure 2A, on Day 48). The severity of the dermatitis was measured macroscopically and scored once a week by using a previously established method based on the clinical signs and symptoms of AD, namely, erythema (hemorrhage), edema, excoriation (erosion), and scaling (dryness). The total dermatitis severity score was defined as the sum of the component scores (0, no symptoms; 1, mild; 2, moderate; 3, severe) for each mouse, ranging from 0 to 12.” left out
Ear thickness was measured on the first day of Ac-RLYE application and then once a week using calipers.

HUVECs = experiment: Immunofluorescence of ZO-1 and VE-cadherin junctions in VEGF-A-stimulated HUVECs; format: cell-based, human; conditions: HUVECs pre-treated 30 min with 0.15 nM Ac-RLYE, then 10 ng/mL VEGF-A for 1 h; confocal immunofluorescence, Image J; n = 3
Procedure: Figure 1 Ac-RLYE inhibits VEGF-A-induced junctional integrity loss in HUVECs. Cells were pre-treated for 30 min with Ac-RLYE (0.15 nM) followed by stimulation with 10 ng/mL VEGF-A (V) for 1 h. (A) Confocal images of ZO-1 and VE-cadherin. (B) Quantification of ZO-1 and VE-cadherin at contact sites between endothelial cells (n = 3). Data are represented as mean ± SD values. *** p < 0.001.
Collagenase type II (Worthington Biochemical Corporation, Lakewood, NJ) was used to isolate human umbilical vein endothelial cells (HUVECs) from umbilical cord veins. The cells were cultured on gelatin-coated plates in Medium 199 supplemented with 20% FBS, 100 U/mL penicillin–streptomycin, 3 ng/mL bFGF, and 5 U/mL heparin. Trypsinization was used to collect the cells (up to passage 7), which were then used for assays.
HUVECs were grown as a monolayer on 2% gelatin-coated cover glasses and cultured in M199 medium containing 1% FBS. The cells were pretreated with 0.15 nM Ac-RLYE for 30 min and stimulated with 10 ng/mL VEGF-A for 1 h. […] The levels of VE-cadherin and ZO-1 were quantified using Image J software.

NC/Nga mice [4] = experiment: Histological analysis (H&E) of AD-like skin lesions; format: in vivo, mouse; conditions: n = 10
Procedure: as §2, §3

NC/Nga mice [5] = experiment: Differential cell counting of blood; format: in vivo, mouse; conditions: differential counting at Day 48; versus vehicle-treated control; n = 10
Procedure: as §1, with “48).” for “48). The severity of the dermatitis was measured macroscopically and scored once a week by using a previously established method based on the clinical signs and symptoms of AD, namely, erythema (hemorrhage), edema, excoriation (erosion), and scaling (dryness). The total dermatitis severity score was defined as the sum of the component scores (0, no symptoms; 1, mild; 2, moderate; 3, severe) for each mouse, ranging from 0 to 12.”
Whole blood samples were collected from the mice and used for analysis. […]

[6] = tested on: Th1, Th2 and Th17 cytokines; experiment: qRT-PCR of cytokine mRNA in AD-like skin lesions; format: in vivo, mouse; conditions: skin at Day 48, normalized to GAPDH, versus vehicle, n = 10
Procedure: as §1, with “48).” for “48). The severity of the dermatitis was measured macroscopically and scored once a week by using a previously established method based on the clinical signs and symptoms of AD, namely, erythema (hemorrhage), edema, excoriation (erosion), and scaling (dryness). The total dermatitis severity score was defined as the sum of the component scores (0, no symptoms; 1, mild; 2, moderate; 3, severe) for each mouse, ranging from 0 to 12.”
Both the ear and dorsal skin of each mouse were excised using a surgical knife, pooled, and used for RNA isolation. Total RNA was prepared using an RNA isolation kit (GeneAll® Hybrid-R™, GeneAll, Korea) following the manufacturer’s instructions. RNA was quantified using a BioTek Take3^TM Multi-Volume plate (Agilent BioTek Instruments, Winooski, VT, USA). An equal amount of total RNA was reverse-transcribed using ReverTra Ace™ qPCR RT Master Mix with gDNA Remover (Toyobo CO., LTD., Osaka, Japan) according to the manufacturer’s instructions. Real time-PCR was performed on a CFX96™ Touch Real-Time PCR System (Bio-Rad, Hercules, CA) using TB Green® Premix Ex Taq™ (Takara, Shiga, Japan). Quantification of the target gene expression was determined by the comparative […] method. The relative expression levels were determined by normalizing expression to glyceraldehyde 3-phosphate dehydrogenase (GAPDH). The level of each target gene was expressed as the relative fold change.

Compound	FLG level in dorsal skin (filaggrin (FLG); 0.1% tacrolimus ointment topical daily for 4 weeks)	Dermatitis score (sum of erythema, edema, excoriation, scaling; 0-12) (NC/Nga mice [1]; 0.1% tacrolimus ointment (Protopic))	Accumulation of mast cells in AD-like skin lesion (NC/Nga mice [2])	Plasma IgE (IgE)	Effect on ear thickness compared with tacrolimus (NC/Nga mice [3]; doses above 0.02%, Day 48)	Increase in ear thickness after HDM (NC/Nga mice [3]; topical 0.004-0.1% once daily for 4 weeks, dose-dependent, versus vehicle)	FLG level in dorsal skin (filaggrin (FLG); 0.1% Ac-RLYE topical daily for 4 weeks)	Protein level of FLG versus vehicle-treated AD group (filaggrin (FLG); Ac-RLYE groups 0.004-0.1%, dose-dependent)	Dermatitis score (sum of erythema, edema, excoriation, scaling; 0-12) (NC/Nga mice [1]; 0.004% in distilled water)	Dermatitis score (sum of erythema, edema, excoriation, scaling; 0-12) (NC/Nga mice [1]; 0.02% in distilled water)	Dermatitis score (sum of erythema, edema, excoriation, scaling; 0-12) (NC/Nga mice [1]; 0.1% in distilled water)	VEGF-induced cellular junction disruption (ZO-1 and VE-cadherin at cell-cell contact sites) (HUVECs)	Infiltration of inflammatory cells in epidermis and dermis (NC/Nga mice [4]; Day 48, all Ac-RLYE-treated groups versus vehicle-treated HDM group)	Scores of hypertrophy and hyperkeratosis in epidermis (NC/Nga mice [4]; Day 48, versus vehicle-treated HDM group)	Number of leukocytes, neutrophils and eosinophils in blood (NC/Nga mice [5])	Expression of IFN-γ [6]	Expression of IL-17A (Th17 cytokine) [6]	Expression of Th1 cytokines IL-23 and TNF-α [6]	mRNA levels of Th2-type cytokines IL-4, IL-13, IL-31 and Th2 chemokine CCL17 [6]
C=CC[C@@H]1/C=C(\C)C[C@H](C)C[C@H](OC)[C@H]2O[C@@](O)(C(=O)C(=O)N3CCCC[C@H]3C(=O)O[C@H](/C(C)=C/[C@@H]3CC[C@@H](O)[C@H](OC)C3)[C@H](C)[C@@H](O)CC1=O)[C@H](C)C[C@@H]2OC [tacrolimus, reference compound]	1444.8 ± 110.5 pg/mL	4.5 ± 2.4	–	–	–	–	–	–	–	–	–	–	–	–	–	–	–	–	–
N-acetyl-Arg-Leu-Tyr-Glu [Ac-RLYE]	–	–	reduced	significantly lowered	slightly better than that of tacrolimus	significantly attenuated	1469.4 ± 105.2 pg/mL	significantly restored	7.4 ± 0.8	5.8 ± 2.3	4.5 ± 2.4	significantly attenuated	less infiltration	decreased	dose-dependently lowered	increased	suppressed	inhibited	remarkably inhibited
